The source of these data is US8791113B2, “2,4-diaryl-substituted [1,8] naphthyridines as kinase inhibitors for use against cancer” (Merck Patent GmbH, priority 2010, dated 2014).

Assay [1] relates to TGF-beta-induced phosphorylation of Smad2 (Ser465/467) and Smad3 (Ser423/425) in Mv1-Lu cells. Put plainly: Inhibition of Smad2/3 phosphorylation in Mv1Lu cells (PathScan Phospho-Smad2 ELISA). The note with it: Neogale vison, Mv1-Lu cells, TGF-beta 1 5 ng/ml, Phospho-Smad2/3 ELISA, read-out: TβR activity (Example 51). Format: cell-based, mink Mustela vison. Put shortly:
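Serum-starved mink Mv1-Lu lung epithelial cells were pretreated with compound for 1.5 h, then stimulated 1 h with 5 ng/ml TGF-beta 1 (0.2% DMSO). Phospho-Smad2/3 in lysates was quantified by ELISA against stimulated and unstimulated controls. IC50 was taken from dose-response fits.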

For assay [2], the target named is T1, GST-ALK5 (TGF-beta receptor kinase) (Homo sapiens, UniProt P36897).
T1 sequence (P36897 34-503): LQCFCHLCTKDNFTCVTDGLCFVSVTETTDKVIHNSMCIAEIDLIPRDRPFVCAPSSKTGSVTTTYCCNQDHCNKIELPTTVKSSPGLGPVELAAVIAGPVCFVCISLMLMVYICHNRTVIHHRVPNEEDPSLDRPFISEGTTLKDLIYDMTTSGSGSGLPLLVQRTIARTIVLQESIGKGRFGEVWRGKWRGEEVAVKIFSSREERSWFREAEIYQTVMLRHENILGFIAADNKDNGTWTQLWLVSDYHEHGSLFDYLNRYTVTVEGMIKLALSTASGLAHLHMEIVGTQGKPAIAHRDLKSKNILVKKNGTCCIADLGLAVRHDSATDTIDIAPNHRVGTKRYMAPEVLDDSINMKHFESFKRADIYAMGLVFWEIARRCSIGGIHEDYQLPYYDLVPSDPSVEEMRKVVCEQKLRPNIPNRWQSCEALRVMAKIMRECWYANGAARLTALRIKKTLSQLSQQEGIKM
Put plainly: In-vitro (enzyme) kinase flashplate assay: GST-ALK5 phosphorylation of GST-SMAD2 with 33P-ATP. Format: biochemical. The note with it: 384-well flashplate kinase assay, GST-ALK5 / GST-SMAD2, 33P-ATP, 30° C., 45 min; read-out: TβR activity (Example 50). A digest of the protocol:
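Flashplate format: 31.2 nM GST-ALK5, 439 nM GST-SMAD2, 3 mM ATP with 33P-ATP in HEPES/MgCl2/MnCl2/DTT/BSA buffer, pH 7.4, 45 min at 30 °C, 5–10 compound concentrations. EDTA stop, saline washes, radioactivity counted. IC50 calculated from the counts.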

For the compound `Fc1ccc(Cl)cc1-c1cc(-c2cc(OCCN3CCOCC3)nc3cnccc23)c2cccnc2n1` [Compound 112, 4-[2-(5-Chloro-2-fluoro-phenyl)-[1,8]naphthyridin-4-yl]-2-(2-morpholin-4-yl-ethoxy)-[1,7]naphthyridine], the IC50 in assay [1] and in assay [2] was under 1 µM throughout.

Consider `Nc1nccc2c(-c3cc(-c4ccccc4F)nc4ncccc34)ccnc12` [Compound 113, 4-[2-(2-Fluoro-phenyl)-[1,8]naphthyridin-4-yl]-[1,7]naphthyridin-8-ylamine], for which the IC50 in assay [1] and in assay [2] was under 1 µM throughout.

Consider `Nc1ccc2c(-c3nccc4c(N)nccc34)cc(-c3ccccc3F)nc2n1` [Compound 114, 5-(5-Amino-[2,6]naphthyridin-1-yl)-7-(2-fluoro-phenyl)-[1,8]naphthyridin-2-ylamine], for which the IC50 in assay [1] and in assay [2] was under 1 µM in each case.

As to `COc1cnc(-c2cc(-c3ccccc3F)nc3ncccc23)c2ccncc12` [Compound 115, 2-(2-Fluoro-phenyl)-4-(4-methoxy-[2,6]naphthyridin-1-yl)-[1,8]naphthyridine], the IC50 in assay [1] and in assay [2] was under 1 µM each time.

Turning to `Cn1cc(-c2cnc3nc(-c4ccccc4F)cc(-c4nccc5c(N)nccc45)c3c2)cn1` [Compound 116, 5-[2-(2-Fluoro-phenyl)-6-(1-methyl-1H-pyrazol-4-yl)-[1,8]naphthyridin-4-yl]-[2,6]naphthyridin-1-ylamine], the IC50 in assay [1] and in assay [2] was over 10 µM in each case.

Consider `Nc1ccc2c(-c3cccc4c(N)nccc34)cc(-c3ccccc3F)nc2n1` [Compound 117, 5-(1-Amino-isoquinolin-5-yl)-7-(2-fluoro-phenyl)-[1,8]naphthyridin-2-ylamine], for which the IC50 in assay [1] and in assay [2] was under 1 µM in each case.

Take `Cc1ccn(-c2cc(-c3c[nH]c4cnccc34)c3cccnc3n2)n1` [Compound 118, 2-(3-Methyl-pyrazol-1-yl)-4-(1H-pyrrolo[2,3-c]pyridin-3-yl)-[1,8]naphthyridine]: the IC50 in assay [1] and in assay [2] was under 1 µM in each case.
